Data published in BigSolDB 2.1.

O=C1CCC(c2ccc(Cl)c(Cl)c2)c2ccccc21 (configuration not stated)
Conditions | solubility (mole fraction)
in DMF, 278.16 K | 0.0335
in DMF, 283.37 K | 0.0408
in DMF, 288.12 K | 0.0487
in DMF, 293.13 K | 0.059
in DMF, 298.17 K | 0.0717
in DMF, 303.28 K | 0.0881
in DMF, 308.28 K | 0.106
in DMF, 313.32 K | 0.129
in DMF, 318.27 K | 0.155
in THF, 278.04 K | 0.0699
in THF, 282.93 K | 0.0823
in THF, 288.33 K | 0.096
in THF, 293.28 K | 0.109
in THF, 298.24 K | 0.124
in THF, 302.94 K | 0.14
in THF, 308.34 K | 0.162
in THF, 313.52 K | 0.187
in acetone, 282.13 K | 0.0162
in acetone, 288.02 K | 0.0217
in acetone, 292.83 K | 0.0261
in acetone, 298.28 K | 0.0321
in acetone, 303.23 K | 0.0397
in acetone, 307.94 K | 0.0498
in acetone, 313.74 K | 0.0673
in acetone, 318.56 K | 0.0871
in acetone, 323.57 K | 0.114
in ethanol, 283.12 K | 0.00171
in ethanol, 288.27 K | 0.0021
in ethanol, 293.38 K | 0.00252
in ethanol, 298.04 K | 0.00303
in ethanol, 302.93 K | 0.00376
in ethanol, 308.32 K | 0.0049
in ethanol, 314.17 K | 0.00667
in ethanol, 318.74 K | 0.00852
in ethanol, 323.26 K | 0.0108
in isopropanol, 278.12 K | 0.000955
in isopropanol, 283.38 K | 0.00128
in isopropanol, 288.33 K | 0.00163
in isopropanol, 293.07 K | 0.00209
in isopropanol, 298.33 K | 0.00278
in isopropanol, 303.36 K | 0.0037
in isopropanol, 308.46 K | 0.00496
in isopropanol, 313.26 K | 0.00649
in isopropanol, 318.54 K | 0.00864
in methanol, 277.93 K | 0.00087
in methanol, 283.06 K | 0.00107
in methanol, 288.28 K | 0.00141
in methanol, 293.42 K | 0.00186
in methanol, 298.04 K | 0.00235
in methanol, 302.77 K | 0.00293
in methanol, 308.56 K | 0.00372
in methanol, 313.53 K | 0.00446
in methanol, 319.04 K | 0.00533
in toluene, 278.18 K | 0.0391
in toluene, 283.13 K | 0.0461
in toluene, 288.28 K | 0.0548
in toluene, 293.22 K | 0.0649
in toluene, 298.12 K | 0.0771
in toluene, 303.14 K | 0.0924
in toluene, 308.46 K | 0.112
in toluene, 313.43 K | 0.135
in toluene, 318.34 K | 0.161
